One assay deals with HPK1 (Homo sapiens, UniProt Q92918). Briefly: HPK1 Biochemical Assay (ADP-Glo luminescence; low ATP 10 μM or high ATP 200 μM). Particulars: 2 nM HPK1, 10 μM ATP; read-out: Biochemical Potency (low ATP). In general terms: In ADP-Glo the light output rises with the ADP produced.
The subject of assay [1] is p-SLP-76 (Ser376) in Jurkat cells. Briefly: pSLP76 Cellular Assay (AlphaLISA SureFire Ultra p-SLP-76 (Ser376), anti-CD3 activated Jurkat cells). Type of assay: cell-based. The following applies: Homo sapiens, read-out: Cellular Potency. As for the experimental part:
pSLP76 cellular assay was performed using Jurkat cells and the AlphaLISA SureFire Ultra p-SLP-76 (Ser376) Assay Kit (PerkinElmer). Dose-response assays were performed in Greiner® Low Volume 384-well assay plates containing 200 nL of 22 serial 2-fold compound dilutions using Bravo and Echo. Jurkat cells were grown in RPMI-1640 supplemented with 10% FBS and PSG. The day prior to the assay, the cells were collected, and serum starved overnight in Opti-MEM. The day of the assay, the cells were collected and resuspended in HBSS. 100,000 cells/well were added to the compound plates and after a short spin, the plates were incubated at 37° C. for 1 h. The cells were activated by adding 10 μL of 0.025 mg/ml anti-CD3. Plates were then incubated at 37° C. for 45 min. Stimulation was terminated by adding […], followed by a brief centrifugation and 60 min of shaking at 300 rpm. Cell lysates (10 μL) were transferred to 384-well White Opti-plates and the samples were processed according to the manufacturer's directions. The fluorescence signal from pSLP76 was measured at 570 nm using Envision plate reader. IC50 values were determined by fitting the data to a standard 4-parameter logistic equation. The results are summarized in the Cellular Potency columns in Tables 4 and 5 below (Cellular Potency).
(Bead proximity is the source of the signal in Alpha formats.)

[2] abbreviates: Jurkat cells, anti-CD3 stimulation, pSLP76.

This is an account of results in patent US12649751B2 (Arcus Biosciences, Inc., priority 2022, dated 2026).

Read-outs that look alike come from different tables or passages of the source.

HPK1, sequence (Q92918 whole entry, species assumed): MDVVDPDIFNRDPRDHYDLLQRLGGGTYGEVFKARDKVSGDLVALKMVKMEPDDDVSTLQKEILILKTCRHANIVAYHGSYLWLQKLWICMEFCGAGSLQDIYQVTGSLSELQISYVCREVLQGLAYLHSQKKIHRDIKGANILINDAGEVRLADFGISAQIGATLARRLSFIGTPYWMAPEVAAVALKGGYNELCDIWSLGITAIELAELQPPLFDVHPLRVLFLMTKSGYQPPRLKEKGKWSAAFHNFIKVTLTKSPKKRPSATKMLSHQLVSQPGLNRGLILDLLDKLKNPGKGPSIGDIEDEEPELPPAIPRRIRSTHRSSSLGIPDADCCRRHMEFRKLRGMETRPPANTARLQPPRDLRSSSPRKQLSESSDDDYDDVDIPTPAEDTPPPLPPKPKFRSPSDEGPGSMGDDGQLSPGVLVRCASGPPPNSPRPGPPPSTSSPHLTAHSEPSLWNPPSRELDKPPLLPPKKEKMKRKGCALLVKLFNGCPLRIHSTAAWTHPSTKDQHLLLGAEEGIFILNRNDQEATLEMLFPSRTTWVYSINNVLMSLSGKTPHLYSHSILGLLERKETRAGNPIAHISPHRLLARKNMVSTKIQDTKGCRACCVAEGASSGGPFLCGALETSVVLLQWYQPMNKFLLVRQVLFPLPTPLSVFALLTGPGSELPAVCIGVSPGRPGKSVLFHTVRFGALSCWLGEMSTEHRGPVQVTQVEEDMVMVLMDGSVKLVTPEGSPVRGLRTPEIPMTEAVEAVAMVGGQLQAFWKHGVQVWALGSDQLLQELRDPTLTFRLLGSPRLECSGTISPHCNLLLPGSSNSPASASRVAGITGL

As to `Cc1cccnc1-c1nc2cc(Nc3ccc([C@@H]4CCOC4)c(CN4CCCC4)n3)ncc2s1` (single isomer, unassigned) [Example 259, N-[2-(3-Methylpyridin-2-yl)-[1,3]thiazolo[5,4-c]pyridin-6-yl]-5-[(3R or 3S)-oxolan-3-yl]-6-[(pyrrolidin-1-yl)methyl]pyridin-2-amine], the figures for the IC50 (on HPK1; in assay [1] (setting [2])) were under 100 nM and 100 to 1000 nM, respectively.
The corresponding values for `c1cncc(-c2nc3cc(Nc4ccc([C@H]5CCOC5)c(CN5CCCC5)n4)ncc3s2)c1` (single isomer, unassigned) [Example 260, 5-[(3R or 3S)—Oxolan-3-yl]-N-[2-(pyridin-3-yl)-[1,3]thiazolo[5,4-c]pyridin-6-yl]-6-[(pyrrolidin-1-yl)methyl]pyridin-2-amine] are under 100 nM and 100 to 1000 nM.
The corresponding values for `c1cncc(-c2nc3cc(Nc4ccc([C@@H]5CCOC5)c(CN5CCCC5)n4)ncc3s2)c1` (single isomer, unassigned) [Example 261, 5-[(3R or 3S)—Oxolan-3-yl]-N-[2-(pyridin-3-yl)-[1,3]thiazolo[5,4-c]pyridin-6-yl]-6-[(pyrrolidin-1-yl)methyl]pyridin-2-amine] are under 100 nM and 100 to 1000 nM.
For `CN(C)Cc1nc(Nc2cc3nc(-c4c(F)cccc4F)sc3cn2)ccc1N1CCOCC1` [Example 1, N-[2-(2,6-Difluorophenyl)-[1,3]thiazolo[5,4-c]pyridin-6-yl]-6-[(dimethylamino)methyl]-5-(morpholin-4-yl)pyridin-2-amine], the results for the IC50 (at HPK1; in assay [1] (Jurkat)) were under 100 nM and over 5000 nM, respectively.
Consider `Cc1ccncc1-c1nc2cc(Nc3ccc(N4CCOCC4)c(CN(C)C)n3)ncc2s1` [Example 3, 6-[(Dimethylamino)methyl]-N-[2-(4-methylpyridin-3-yl)-[1,3]thiazolo[5,4-c]pyridin-6-yl]-5-(morpholin-4-yl)pyridin-2-amine], for which the figures for the IC50 (at HPK1; in assay [1] (setting [2])) were under 100 nM and 100 to 1000 nM, respectively.
The matching figures for `CN(C)Cc1nc(Nc2cc3nc(-c4ccncc4F)sc3cn2)ccc1N1CCOCC1` [Example 4, 6-[(Dimethylamino)methyl]-N-[2-(3-fluoropyridin-4-yl)-[1,3]thiazolo[5,4-c]pyridin-6-yl]-5-(morpholin-4-yl)pyridin-2-amine]: under 100 nM and 100 to 1000 nM.
For the compound `CN(C)Cc1nc(Nc2cc3nc(-c4ccncc4)sc3cn2)ccc1N1CCOCC1` [Example 5, 6-[(Dimethylamino)methyl]-5-(morpholin-4-yl)-N-[2-(pyridin-4-yl)-[1,3]thiazolo[5,4-c]pyridin-6-yl]pyridin-2-amine], the IC50 (on HPK1; in assay [1] (setting [2])) was under 100 nM each time.
For the compound `CN(C)Cc1nc(Nc2cc3nc(-c4cccnc4)sc3cn2)ccc1N1CCOCC1` [Example 6, 6-[(Dimethylamino)methyl]-5-(morpholin-4-yl)-N-[2-(pyridin-3-yl)-[1,3]thiazolo[5,4-c]pyridin-6-yl]pyridin-2-amine], the IC50 on HPK1 is under 100 nM; in assay [1] (setting [2]), 100 to 1000 nM.
Regarding `c1ccc(-c2nc3cc(Nc4ccc(N5CCOCC5)c(CN5CCCC5)n4)ncc3s2)nc1` [Example 7, 5-(Morpholin-4-yl)-N-[2-(pyridin-2-yl)-[1,3]thiazolo[5,4-c]pyridin-6-yl]-6-[(pyrrolidin-1-yl)methyl]pyridin-2-amine], the IC50 was under 100 nM at HPK1 and 1000 to 5000 nM in assay [1] (setting [2]).
Consider `Cc1cccnc1-c1nc2cc(Nc3ccc(N4CCC(F)(F)C4)c(CN4CCCC4)n3)ncc2s1` [Example 9, 5-(3,3-Difluoropyrrolidin-1-yl)-N-[2-(3-methylpyridin-2-yl)-[1,3]thiazolo[5,4-c]pyridin-6-yl]-6-[(pyrrolidin-1-yl)methyl]pyridin-2-amine], for which the figures for the IC50 (on HPK1; in assay [1] (setting [2])) were under 100 nM and 100 to 1000 nM, respectively.
The matching figures for `CN(C)Cc1nc(Nc2cc3nc(-c4c(F)cccc4F)sc3cn2)ccc1N1CCC(O)CC1` [Example 12, 1-(6-{[2-(2,6-Difluorophenyl)-[1,3]thiazolo[5,4-c]pyridin-6-yl]amino}-2-[(dimethylamino)methyl]pyridin-3-yl)piperidin-4-ol]: under 100 nM and 1000 to 5000 nM.
